# Data taken from patent US7160992B2, “Amino-modified polysaccharides and methods of generating and using same” (Yeda Research and Development Co., Ltd., priority 2003, dated 2007).
# Where “and” joins values, the source holds several entries; their conditions need not be identical. Equal entries are not always repeated. Where two headings read alike, the source gives them in different places.
# Columns and labels:
# [1] = tested on: HIV-1 clade C; experiment: Replication of HIV-1 clade C in MT2 cells, tetrazolium viability; assay type: cell-based; conditions: present throughout infection or only the first two hours; NeoR6 2–20 μM, R3G 5–40 μM
# Experimental: Infected cells were washed, seeded in 96-well plate (5×10^4 cells per well) and incubated for 4 days in the absence or presence of various drug concentrations, until syncytia were observed (>25% ctu). Cell viability was measured by tetrazolium-based colorimetric method. The results shown are mean ±standard deviation of triplicates. Circles denote the presence of AACs during the infection step and after the cells were washed; Squares denote the presence of AACs only during the first 2 hours prior to washing.
# [2] = target: T1, CXCR4 (Homo sapiens, UniProt P61073); experiment: Inhibition of anti-CXCR4 mAb 12G5 binding to cells, flow cytometry; assay type: cell-based; conditions: for reduction of 12G5 mAb binding to the cells / median fluorescence intensity (MFI) of PE-12G5 in presence of AAC: 10 μM AAC; for reduction of 12G5 mAb binding to the cells: PM1 cells, 30 min at 4° C.; for median fluorescence intensity (MFI) of PE-12G5 in presence of AAC: mAb alone 451, isotype control 30
# T1 construct: endogenous in cells; host or cells: PM1 cells and PBMC
# T1 sequence (P61073 whole entry): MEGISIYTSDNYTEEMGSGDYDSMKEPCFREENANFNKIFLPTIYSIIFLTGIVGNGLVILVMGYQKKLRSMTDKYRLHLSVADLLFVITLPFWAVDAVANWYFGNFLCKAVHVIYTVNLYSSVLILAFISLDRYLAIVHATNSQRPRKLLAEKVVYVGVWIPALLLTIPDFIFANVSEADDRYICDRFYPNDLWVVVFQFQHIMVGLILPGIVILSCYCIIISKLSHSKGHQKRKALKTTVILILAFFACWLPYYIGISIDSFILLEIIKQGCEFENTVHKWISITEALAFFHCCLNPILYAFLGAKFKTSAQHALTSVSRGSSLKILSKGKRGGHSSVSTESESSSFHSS
# Experimental: FIGS. 11a–d are graphs depicting the binding of AACs to CXCR4 in the presence of anti CXCR4 antibody (12G5). PM1 cells were incubated with PE-conjugated isotype control mAb, PE-anti CXCR4 conjugated mAb (12G5) alone, or in the presence of the indicated AACs for 30 min at 4° C. The cells were then washed twice with PBS and analyzed by flow cytometry. The MFI values are shown in parenthesis.
# Interaction of AACs with CXCR4 was determined by flow cytometry (FACScan, Becton Dickinson) as described recently (Litovchick et al., 2001, supra). Briefly, 0.5×10^6 cells were washed in ice-cold PBS containing 0.1% sodium azide (wash buffer) and incubated at 4° C. with anti-CXCR4 mAb, 12G5 (PharMingen, San Diego, Calif.) conjugated to phycoerithrine (PE), in the absence or presence of different concentrations of the AACs. After 30 min of incubation, the cells were washed with ice-cold wash buffer and fixed in PBS containing 1% paraformaldehyde. Non-specific fluorescence was assessed by using isotype-matched control. For each sample 10,000 events were acquired. Data were analyzed and processed using CellQuest™ software (Becton Dickinson).
# [3] = tested on: HIV-1IIIB wild type; experiment: Inhibition of HIV-1IIIB wild type in MT2 or cMAGI cells; assay type: cell-based
# Excerpt: (§1) The cMAGI assay is based on the ability of HIV-1 TAT to transactivate the expression of an integrated β-galactosidase reporter gene driven by the HIV-LTR [Chackerian, B. et al., 1997. J Virol. 71: 3932–3939; Collins, K. B. et al., 2000. Nat. Med. 6: 475–479]. The β-galactosidase reporter has been modified to remain localized in the nucleus where it can be detected with the X-gal substrate as an intense nuclear stain within a few days of infection. The X-gal substrate used was 5-bromo-4-chloro-3-indoyl-beta-D-galactopyranoside. HIV1IIIB was propagated by subculture in MT2 as described previously [Litovchick (2001) Supra]. Aliquots of cell-free culture supernatants were used as viral inoculum. […] The cytopathic effects of the viral infection of MT2 cells were analyzed by microscopic assessment of syncytium formation. These latter data were obtained by analysis of duplicate samples by two independent observers. HIV-1 infection of cMAGI cells was determined by counting the number of HIV-1 infected cells (stained blue).
# [4] = tested on: NeoR6 resistant HIV-1 isolates; experiment: Inhibition of NeoR6 resistant HIV-1 isolates in MT2 or cMAGI cells; assay type: cell-based
# Excerpt: as §1
# Culture fluids were replaced […] weekly with fresh medium containing an appropriate drug concentration. […] From the final cycle of each experiment the resistant virus was propagated as described above.
# [5] = target: T2, CCR5 (Homo sapiens, UniProt P51681); conditions: PHA stimulated peripheral blood lymphocytes; cited from earlier work
# T2 construct: in PHA stimulated peripheral blood lymphocytes (PBL); host or cells: PHA stimulated peripheral blood lymphocytes (PBL)
# T2 sequence (P51681 whole entry): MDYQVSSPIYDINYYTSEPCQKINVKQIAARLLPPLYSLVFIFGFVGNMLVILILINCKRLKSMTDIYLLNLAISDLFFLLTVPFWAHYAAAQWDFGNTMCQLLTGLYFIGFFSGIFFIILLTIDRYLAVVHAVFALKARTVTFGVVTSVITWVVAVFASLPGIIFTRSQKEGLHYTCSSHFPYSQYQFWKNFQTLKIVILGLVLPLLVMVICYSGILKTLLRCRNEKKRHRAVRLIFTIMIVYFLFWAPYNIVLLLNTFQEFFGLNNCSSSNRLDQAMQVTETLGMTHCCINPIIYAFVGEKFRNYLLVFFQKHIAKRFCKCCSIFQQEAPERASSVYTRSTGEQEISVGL
# [6] = target: T3, CD4 (Homo sapiens, UniProt P01730); conditions: PHA stimulated peripheral blood lymphocytes; cited from earlier work
# T3 construct: in PHA stimulated peripheral blood lymphocytes (PBL); host or cells: PHA stimulated peripheral blood lymphocytes (PBL)
# [7] = tested on: lymphocytes, PBMC and neurons; conditions: cited from earlier work
# [8] = target: TAR RNA; experiment: Fluorescence anisotropy: RhdRev binding and AAC competition for TAR RNA; design: species or system HIV-1
# [9] = target: RRE IIB RNA; experiment: Fluorescence anisotropy: RhdRev binding and AAC competition for RRE IIB RNA; design: species or system HIV-1
# [10] = tested on: U38, PM1, H9 cells and PBMC; experiment: Cellular uptake of AAC-FITC fluorescent probes, fluorescence microscopy; assay type: cell-based; conditions: 0.5 μM, 10 minutes of incubation
# Experimental: Images were obtained using a Zeiss Axiophot microscope.
# Cellular uptake using AAC fluorescent probes—U38, PM1, H9 cells and PBMC(10^5) were incubated for 20 minutes at room temperature in 100 μl RPMI 1640 medium (Gibco-BRL, Life-Technologies, UK) including AAC-FITC derivatives as indicated at a final concentration of 0.5 μM. Cells were washed twice, resuspended in 100 μl medium and analyzed with a Zeiss Axiophot fluorescent microscope.
# [11] = tested on: ICR (CD-1) mice; experiment: Acute intravenous toxicity of NeoR6 in mice; assay type: in vivo
# Experimental: Injection volumes applied ranged from 4–10 ml/kg
# Observation of clinical signs post-NeoR6 injection—On the day of injection, careful clinical examinations were carried out continuously during the first 90 minutes post-injection. Thereafter, animals were inspected at least once a day for 14 consecutive days. Observations included changes in the skin and fur, eyes and mucous membranes, respiratory, circulatory, autonomic and central nervous systems, somatomotor activity and behavior pattern with particular attention to occurrence of tremors, convulsions, salivation, diarrhea, lethargy, sleep and coma.
# Necropsy and Gross Pathology—All test animals, including decedents were subjected to gross necropsy. At necropsy all animals were thoroughly examined for abnormality of tissues or organs. All major body cavities were opened, larger organs were sectioned and the gastro-intestinal tract was opened at intervals for examination of the mucosal surfaces. The normal appearance of major organs was confirmed for each animal and any gross pathological changes or abnormalities were described.
# [12] = tested on: cMAGI cells; experiment: Competition between FITC-labelled AACs and RANTES; assay type: cell-based; conditions: 2.5 mM RANTES
# Experimental: Competition between FITC labelled AACs (1 mM) and RANTES (2.5 mM, Pepro Tech Inc., New Jersey, USA) was effected in 2×10^5 cMAGI cells. Following 30 min of incubation, cells were washed with ice-cold wash buffer and analysed by flow cytometry as described above.
# [13] = tested on: S. epidermidis; experiment: Minimal inhibitory concentration, serial two-fold dilutions in TSB; assay type: cell-based
# [14] = tested on: B. subtilis; experiment: as above; assay type: cell-based
# [15] = tested on: S. aureus; experiment: as above; assay type: cell-based
# [16] = tested on: P. aeruginosa; experiment: as above; assay type: cell-based
# [17] = tested on: E. coli; experiment: as above; assay type: cell-based
# [18] = tested on: E. faecalisr; experiment: as above; assay type: cell-based
# [19] = tested on: Gram-positive bacteria; experiment: Minimal inhibitory concentration, Gram-positive bacteria as a group; assay type: cell-based; conditions: range over susceptible Gram-positive bacteria
# [20] = tested on: TAR or RRE RNAs; conditions: cited from earlier work
# [21] = tested on: TAR; conditions: in contrast to Tat peptide (R52) or AACs; cited from earlier work
# [22] = tested on: HIV-1 isolates; conditions: Cabrera et al., 2002; cited from earlier work
# [23] = HIV-1IIIB wt, mean and standard deviation of three separate experiments, read-out: EC50, Wild-type
# [24] = NeoR6 resistant isolates after 25 passages, mean and standard deviation of three separate experiments, read-out: EC50, NeoR6RES
compound,measurement,setting,value
"CNC(C)C1CCC(NC(=O)C(N)CCCNC(=N)N)C(OC2C(NC(=O)C(N)CCCNC(=N)N)CC(NC(=O)C(N)CCCNC(=N)N)C(OC3OCC(C)(O)C(NC)C3O)C2O)O1 (stereo not drawn) [R3G, tri-arginine gentamycin C1 conjugate, reference compound]",inhibition of viral proliferation (in words),[1],could inhibit viral proliferation
same,reduction of 12G5 mAb binding to the cells,[2],84%
same,median fluorescence intensity (MFI) of PE-12G5 in presence of AAC,[2],89
same,EC50,[3]; [23],4100 ± 2400 nM
same,EC50,[4]; [24],21000 ± 8800 nM
same,times more resistant than the wild type virus,"[4]; NeoR6 resistant isolates, following 25 passages",~5
same,"inhibition of binding of 2D7, a mAb directed to CCR5",[5],neither R3G nor R4K or NeoR6 inhibit the binding
same,inhibition of binding of anti CD4 antibody (Leu 3a),[6],neither R3G nor R4K or NeoR6 inhibit the binding
same,accumulation in cells,[7],accumulate in different cell types
"NC(N)=NCCC[C@H](N)C(=O)NC[C@@H]1OC(O[C@H]2[C@@H](O)[C@H](O[C@@H]3[C@@H](O)[C@H](NC(=O)[C@@H](N)CCCN=C(N)N)C[C@H](NC(=O)[C@@H](N)CCCN=C(N)N)[C@H]3O[C@H]3O[C@H](CNC(=O)[C@@H](N)CCCN=C(N)N)[C@@H](O)[C@H](O)[C@H]3NC(=O)[C@@H](N)CCCN=C(N)N)O[C@@H]2CO)[C@H](NC(=O)[C@@H](N)CCCN=C(N)N)[C@@H](O)[C@@H]1O (stereo partly drawn) [NeoR6, Neomycin hexa-arginine conjugate]",Kd,"[8]; competition of AACs with RhdRev (10 nM) for TAR RNA (20 nM) binding, 85 mM NaCl",5 nM
same,IC50,[8]; competition of AACs with RhdRev for TAR RNA binding,19.9 ± 2.7 nM
same,competition with RhdRev for TAR RNA binding (in words),[8]; up to 20 μM of AAC,efficiently competed
same,Kd,"[9]; competition of AACs with RhdRev (10 nM) for RRE IIB RNA (20 nM) binding, 85 mM NaCl",23 nM and 23.3 nM
same,IC50,[9]; competition of AACs with RhdRev for RRE IIB RNA binding,72.7 ± 10.1 nM
same,cellular uptake of FITC-labeled AAC by PM1 cells,[10],uptaken by PM1 cells
same,adverse effects,"[11]; 50 mg/kg as 2 successive injections, interdosing interval of 3 hours",did not cause any adverse effects other than a very transient reduction in respiratory rate and spontaneous motor activity
same,weight gain (in words),"[11]; 14-day observation period, all mice except 2 females (10 or 30 mg/kg)",normal mode of weight gain
same,maximum tolerated dose (MTD),[11]; acute IV administration,30 to 35 mg/kg
same,pathological findings at necropsy,[11]; decedent and surviving animals,no pathological findings
same,Weight Gain (gr.) (Day 1–15),"[11]; group 2F, 1 female, 15 mg/kg single bolus",4.3 gr.
same,Weight Gain (gr.) (Day 1–15),"[11]; group 3F, 1 female, 25 mg/kg single bolus",5.3 gr.
same,Weight Gain (gr.) (Day 1–15),"[11]; group 4F, 2 females, 30 mg/kg single bolus, one survivor",1.6; — gr.
same,clinical signs,"[11]; single IV 30 and 35 mg/kg, confined to the first 10 min after dosing",respiratory and motoric irregularities
same,mortality,"[11]; single female mouse, 30 mg/kg IV",died within the first five minutes post-injection
same,reaction to treatment,"[11]; single intravenous administration, 10, 15 and 25 mg/kg",No obvious reaction to treatment
same,toxicity when given intravenously,[11]; two single doses of 25 mg/kg of body weight over the course of 2 hours,non-toxic
same,reduction of 12G5 mAb binding to the cells,[2],90%
same,median fluorescence intensity (MFI) of PE-12G5 in presence of AAC,[2],76
same,effect of RANTES on uptake of FITC derivative,[12],did not affect uptake
same,EC50,[3]; [23],1900 nM
same,MIC,[13],0.78 µg/mL
same,MIC,[14],1.56 µg/mL
same,MIC,[15],6.25 µg/mL
same,MIC,[16],100 µg/mL
same,MIC,[17],100 µg/mL
same,MIC (mg/L),[18],≧200 mg/L
same,"MIC values, Gram-positive bacteria",[19],0.78 to 6.25 µg/mL
same,"inhibition of binding of 2D7, a mAb directed to CCR5",[5],neither R3G nor R4K or NeoR6 inhibit the binding
same,inhibition of binding of anti CD4 antibody (Leu 3a),[6],neither R3G nor R4K or NeoR6 inhibit the binding
same,accumulation in cells,[7],accumulate in different cell types
"N=C(N)NCCCC(=O)NCC1OC(OC2C(NC(=O)CCCNC(=N)N)CC(NC(=O)CCCNC(=N)N)C(OC3OC(CO)C(O)C(NC(=O)CCCNC(=N)N)C3O)C2O)C(O)C(O)C1O (stereo not drawn) [GB4K, kanamycine A conjugated to four γ-guadinno butiric acid]",affinity to TAR or RRE RNAs (in words),[20],very low affinity
same,protection of the bulge region of TAR from RNase A cleavage,[21],cannot protect the bulge region of TAR from RNase A cleavage
SDF-1α,inhibition of PE-12G5 binding to PM1 cells by SDF-1α,"[2]; 62.5 and 125 nM SDF-1α, control",inhibited significantly
same,EC50,[3]; [23],200 ± 50 nM
same,EC50,"[3]; wt HIV-1 isolate, text of b338",1 µg/mL
same,EC50,"[4]; NeoR6 resistant HIV-1 isolates, text of b338",1 µg/mL
same,EC50,[4]; [24],180 ± 70 nM
same,"anti-HIV-1 EC50, fold lower than that of NeoR6",[22],~70 fold
